{"source": "paper PMC7272432", "about": "“Amyloid Aggregation of Insulin: An Interaction Study of Green Tea Constituents” (Scientific Reports, 2020)", "target": "T1, human insulin (Homo sapiens, UniProt P01308)", "T1 construct": "gene INS; Human insulin (I2643, recombinant, expressed in yeast); 51 amino acids divided into two chains", "T1 sequence (P01308 25-54)": "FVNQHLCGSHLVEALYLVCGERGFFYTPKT", "T1 sequence (P01308 90-110)": "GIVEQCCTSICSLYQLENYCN", "experiment": "ThT fluorescence assay of insulin amyloid aggregation ([…] insulin, pH […] °C), supported by kinetics, AFM and ATR-FTIR", "format": "biochemical", "data": [{"compound": "O=C(O[C@@H]1Cc2c(O)cc(O)cc2O[C@@H]1c1cc(O)c(O)c(O)c1)c1cc(O)c(O)c(O)c1", "note": "[EGCG, (-)-epigallocatechin gallate]", "values": [{"measurement": "IC50", "value": "476 ± 32.5", "unit": "µM"}]}]}
